This is an account of results in patent US9649310B2, “Certain kynurenine-3-monooxygenase inhibitors, pharmaceutical compositions, and methods of use thereof” (CHDI Foundation, Inc., priority 2011, dated 2017).

One data set has as its target T1, KMO mouse enzyme (Mus musculus, UniProt Q91WN4).
T1 construct: KMO enzyme prepared at Evotec from mouse liver (4-6 weeks old) via mitochondria isolation; from tissue; host or cells: mouse liver (4-6 weeks old), mitochondria isolation at Evotec
In words: Mouse KMO enzyme assay: L-kynurenine hydroxylation to 3OH-KYN by LC/MS. Type of data set: biochemical. To be noted: compound at 10 μM; KMO from mouse liver mitochondria; read-out: INH.Mouse @ 10 μM. As for the experimental part:
Product is quantified by multiple reaction monitoring (MRM method).
• Compound: Stock concentrations: 10 mM in 100% DMSO • Enzyme: KMO enzyme prepared at Evotec from mouse liver (4-6 weeks old) via mitochondria isolation as described in the literature • Substrate: L-Kynurenine (Sigma: Cat #K3750, stock concentration:
10 mM in 100 mM potassium phosphate buffer, pH 7.4)

Data set [1] can be described thus: Solubility remark made during LCMS characterisation. To be noted: solvent for LCMS analysis. It is filed as physicochemical.

T1 sequence (Q91WN4 whole entry): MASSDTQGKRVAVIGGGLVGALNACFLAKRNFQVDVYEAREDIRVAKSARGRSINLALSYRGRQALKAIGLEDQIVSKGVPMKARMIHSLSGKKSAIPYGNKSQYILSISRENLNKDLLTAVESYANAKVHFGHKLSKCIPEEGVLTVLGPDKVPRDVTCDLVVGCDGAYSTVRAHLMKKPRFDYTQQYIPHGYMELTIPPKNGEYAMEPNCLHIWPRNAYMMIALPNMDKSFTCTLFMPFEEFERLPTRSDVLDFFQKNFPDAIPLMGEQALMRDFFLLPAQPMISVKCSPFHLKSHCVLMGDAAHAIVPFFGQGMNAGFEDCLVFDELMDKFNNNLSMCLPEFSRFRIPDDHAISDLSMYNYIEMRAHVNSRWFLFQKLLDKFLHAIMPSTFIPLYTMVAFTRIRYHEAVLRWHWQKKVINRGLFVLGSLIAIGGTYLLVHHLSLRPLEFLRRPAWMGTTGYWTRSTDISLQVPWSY

On to `O=C(O)C1CNCCN1c1cc(-c2ccc(Cl)c(Cl)c2)ncn1` (stereo not shown) [1-(6-(3,4-dichlorophenyl)pyrimidin-4-yl)piperazine-2-carboxylic acid], for which, at KMO mouse enzyme, the inhibition at 10 µM is 30%.
The same measure, in the same setting: under `O=C(O)C1CCC(c2cc(-c3ccc(OC4CC4)c(Cl)c3)ncn2)N1` (stereo not shown) [5-(6-(3-chloro-4-cyclopropoxyphenyl)pyrimidin-4-yl)pyrrolidine-2-carboxylic acid] stands 84%; under `O=C(O)[C@H]1CCCN1c1cc(-c2ccc(Cl)c(Cl)c2)ncn1` [(R)-1-(6-(3,4-dichlorophenyl)pyrimidin-4-yl)pyrrolidine-2-carboxylic acid], 7%; under `Clc1cc(-c2cc(-c3nn[nH]n3)ncn2)ccc1OC1CC1` [4-(3-chloro-4-cyclopropoxyphenyl)-6-(1H-1,2,3,4-tetrazol-5-yl)pyrimidine], 100%.
The same measure, in the same setting: the figure for `O=C(O)C1CCN(c2cc(-c3ccc(Cl)c(Cl)c3)ncn2)C1` (stereo not shown) [1-(6-(3,4-dichlorophenyl)pyrimidin-4-yl)pyrrolidine-3-carboxylic acid] is 14%; for `O=c1[nH]c(-c2cc(-c3ccc(OC4CC4)c(Cl)c3)ncn2)no1` [3-[6-(3-chloro-4-cyclopropoxyphenyl)pyrimidin-4-yl]-4,5-dihydro-1,2,4-oxadiazol-5-one] it is 93%; for `Clc1cc(-c2cc(-c3ncco3)ncn2)ccc1OC1CC1` [2-(6-(3-chloro-4-cyclopropoxyphenyl)pyrimidin-4-yl)oxazole] it is 71%.
On the same count and under the same terms, the figure for `O=C(O)[C@@H]1CCCN1c1cc(-c2ccc(Cl)c(Cl)c2)ncn1` [(S)-1-(6-(3,4-dichlorophenyl)pyrimidin-4-yl)pyrrolidine-2-carboxylic acid] is 11%.
As to `Cn1[nH]cc(-c2cc(-c3ccc(Cl)c(Cl)c3)ncn2)c1=O`, in data set [1], the “solubility (remark in words)” value is given as “Compound is insufficiently soluble in any acceptable solvent in order to obtain a meaningful LCMS 1H NMR (500 MHz, DMSO-d6) d ppm 8.88 (1 H, s), 8.44 (1 H, br. s.), 8.26 (1 H, br. s.), 8.19 (1 H, d), 8.06 (1 H, br. s.), 7.85 (1 H, d), 3.45 (3 H, s)”.
With `CC(C)Oc1ccc(-c2cc(C3CNC(C(=O)O)C3)ncn2)cc1Cl` (stereo not shown) [4-(6-(3-chloro-4-isopropoxyphenyl)pyrimidin-4-yl)pyrrolidine-2-carboxylic acid], the inhibition at 10 µM at KMO mouse enzyme was 71%.
Still for that read-out and setting: the figure for `FC(F)(F)c1c[nH]c(-c2cc(-c3ccc(Cl)c(Cl)c3)ncn2)n1` [4-(3,4-dichlorophenyl)-6-(4-(trifluoromethyl)-1H-imidazol-2-yl)pyrimidine] is 0%.
For the molecule `O=c1[nH]nc(-c2cc(-c3ccc(Cl)c(Cl)c3)ncn2)[nH]1`, in data set [1], the “solubility (remark in words)” value was “very unsoluble compound- LCMS unobtainable ^1H NMR (250 MHz, DMSO- d6) ppm 9.27-9.32 (1 H, m), 8.39-8.47 (2 H, m), 8.17- 8.25 (1 H, m), 7.76-7.85 (1 H, m)”.
Regarding `O=C(O)C1CN(c2cc(-c3ccc(Cl)c(Cl)c3)ncn2)CCN1` (stereo not shown) [4-(6-(3,4-dichlorophenyl)pyrimidin-4-yl)piperazine-2-carboxylic acid], on KMO mouse enzyme, the inhibition at 10 µM worked out at 0%.
